Laboratory results taken from US9506056B2, “Nucleic acid functionalized nanoparticles for therapeutic applications” (NORTHWESTERN UNIVERSITY, priority 2006, dated 2016).
Structures can show the parent of a compound that is named as a salt.

Test system: A549 cells
Assay: Cell viability of dox-treated A549 cultures with oligonucleotide-modified nanoparticles
Type: cell-based, human
Conditions: dox alone at 25 μm dox concentration
Experimental: As proof of the oligonucleotide-modified gold nanoparticle for drug control concept, the anticancer drug doxorubicin hydrochloride (dox) in a lung cancer cell model (A549) was investigated. […] However, when an oligonucleotide functionalized nanoparticle agent containing a non-specific sequence is added to the culture at the same point as the drug molecule, a dose-dependant recovery of cell viability is observed (cells recover to approximately 80% viable at 3 nM concentration of nanoparticles). The dox-treated cells were then examined in the presence of an anti-survivin oligonucleotide modified gold nanoparticle conjugate. […] In these studies, the anti-survivin containing nanoparticle agent added to the culture at the same point as the drug molecule reduce cell viability to 45% at low concentrations and recover cell viability to 75% at high concentrations (FIG. 3).

For `COc1cccc2c1C(=O)c1c(O)c3c(c(O)c1C2=O)C[C@@](O)(C(=O)CO)C[C@@H]3O[C@H]1C[C@H](N)[C@H](O)[C@H](C)O1` [dox, doxorubicin hydrochloride], the cell viability was “approximately 60%”.
